From US20220227761A1, “OXOACRIDINYL ACETIC ACID DERIVATIVES AND METHODS OF USE” (STINGTHERA, INC., priority 2019, published 2022)

What was measured:
[1] = tested on: STING protein; IRF/IFN signaling in THP-1 R232 cells; assay: Cell based reporter assay, THP-1 R232 IRF-luc; settings: Homo sapiens, THP1-dual-KI R232 cells, IRF luciferase reporter; for Emax: maximum measured activity, read-out: THP 1-dual-KI R232_IRF(Luciferase)_Activity Maximum measured (%); for IC50: read-out: THP 1-dual-KI R232_IRF(Luciferase) IC50
Text: Cell reporter assays were developed to measure the ability of compounds of the application to activate the STING protein and activate both IRF/IFN and the NFkB signaling pathways in the myeloid derived cell line THP-1, which is commercially available from several suppliers. Briefly, THP-1 monocytes were transfected and selected for stable integration of 2 reporter constructs. Clones incorporating stably integrated vectors were further selected by antibiotic resistance to blastocidin and zeocin. The reporter constructs included: (1) firefly luciferase reporter gene under the control of an ISG54 promoter fused to five interferon (IFN)-stimulated response elements to measure IRF transcription factor binding activity and (2) secreted embryonic alkaline phosphatase reporter gene under transcription control of an IFN-beta minimal promoter fused to 5 copies of the NFkB consensus transcriptional response element and 3 copies of the c-Rel binding site.
The resulting THP-1 cell line was further modified to incorporate 3 amino acid point mutations (H71R A230G Q293R). This modification of the native TMEM173 gene in THP-1 cells (HAQ) was designed to produce a cell reporter that expressed the most common allelic variant in the human population (THP-1 R232, available from InvivoGen). Alternatively, the TMEM173 gene was knocked out to provide a congenic control to counter-screen for compound activation that was independent of the STING protein (THP-1 STING KO).
Once cell lines were established, reporter assay protocols were developed and optimized to screen small molecule compounds for agonist activity. Assay optimization for efficacy and Z′ value included titration of the following parameters:
• 1. Cell pre-activation with PMA • 2. Cell seeding density • 3. DMSO tolerance • 4. Media selection • 5. FBS concentration • 6. Incubation time • 7. Co-Assessment of cell viability by CTG assay • 8. Appropriate HPE and ZPE controls • 9. Dose Response Titration
• 1. No pre-activation with PMA • 2. 5×10^4 cells/well in 96 well plate format • 3. <0.5% DMSO • 4. RPMI 1640+2.5 mg/ml glucose • 5. 10% FBS • 6. 14-18 hr incubation • 7. Cell Titer Glo reagent (Promega) following supernatant removal • 8. […] 8 point, 2 fold, duplicate starting at 150 μM

hSTING-R232 (aa140-379) = hSTING-R232 (aa140-379) (Homo sapiens, UniProt Q86WV6, H232R); assay: STING differential scanning fluorimetry (DSF) assay, hSTING WT; settings: shift in melting temperature apo vs ligand-bound
Description: A STING DSF assay was performed to determine protein thermostability shift in response to small molecule ligand binding. A STING thermnostability shift assay based on differential scanning fluorimetry was used to measure (1) the net shift in melting temperature (ΔTm) between the apo and ligand-bound states of the STING protein and (2) the concentration of the thermal denaturation transition (EC50) as a surrogate measure of binding affinity (Kd). […] Protein in assay buffer was transferred to a 384 well plate and incubated with the hydrophobic fluorescent dye SYBR Orange. A temperature ramp was applied to the plate and the resulting dye fluorescence was plotted as a function of temperature. The first derivative of this function (dF/dT) was then used to extrapolate the melting temperature of the protein at various concentrations of compound and determine the thermal denaturation profile of a protein/compound complex.
5 μM purified Target STING Protein • 3. 8 μM Sypro Orange Dye • 4. Buffer: 100 mM NaCl, 30 mM HEPES, pH 7.5 • 5. Thermal Ramp: 0.5° C./min • 6. <1% DMSO • 7. 11 point, 2 fold dilution, duplicate, 300 μM high concentrations • 8.

[2] = biological target: human STING protein (140-379), WT (Homo sapiens, UniProt Q86WV6, H232R); assay: Radiometric filtration binding competition assay (FBA), hSTING-WT; settings: WT-hSWAT IC50 (μM), WT_FBA_HIS-SUMO-hSWAT; wild-type human STING; competition with [H3] 2′3′cGAMP
Sequence of human STING protein (140-379), WT (Q86WV6 140-379 H232R): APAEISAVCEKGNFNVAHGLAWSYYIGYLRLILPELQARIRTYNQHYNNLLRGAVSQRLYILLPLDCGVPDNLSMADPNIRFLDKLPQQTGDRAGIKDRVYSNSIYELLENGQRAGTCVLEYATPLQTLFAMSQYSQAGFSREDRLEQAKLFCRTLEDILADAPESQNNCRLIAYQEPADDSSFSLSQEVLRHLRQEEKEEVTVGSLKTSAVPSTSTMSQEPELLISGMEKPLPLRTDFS

Sequence of hSTING-R232 (aa140-379) (Q86WV6 140-379 H232R): as above

SMILES | Emax [1] | IC50 [1] | WT_DSF_hSWAT Tm Shift (° C.) (hSTING-R232 (aa140-379)) | IC50 [2]
CC(C)c1ccc2c(=O)c3c(O)cc(Cl)c(N(C)C)c3n(CC(=O)O)c2c1 [Compound 21] | > 50% | < 50 µM | D (“D” >7° C.) | < 20 µM
CCC(C)(C)c1ccc2c(=O)c3ccc(Cl)c(N(C)C)c3n(CC(=O)O)c2c1 [Compound 22] | > 50% | 50 to 100 µM | D (“D” >7° C.) | < 20 µM
CN(C)c1c(Cl)ccc2c(=O)c3ccc(C4=CCCCC4)cc3n(CC(=O)O)c12 [Compound 23] | > 50% | < 50 µM | D (“D” >7° C.) | < 20 µM
Cc1ccc2c(=O)c3ccc(C(F)(F)F)c(N(C)C)c3n(CC(=O)O)c2c1 [Compound 26] |  |  | B (“B” = 0-2° C.) | > 300 µM
COc1c(Cl)ccc2c(=O)c3ccc(C4CCC(N5CCN(C)CC5)CC4)cc3n(CC(=O)O)c12 (stereo not shown) [Compound 27] |  |  | C (“C” = 2-7° C.) | 20 to 100 µM
COc1c(Cl)ccc2c(=O)c3ccc(C4=CCC(N5CCN(C)CC5)CC4)cc3n(CC(=O)O)c12 (stereo not shown) [Compound 28] |  |  | C (“C” = 2-7° C.) | 20 to 100 µM
Cc1cc2c(cc1Cl)c(=O)c1ccc(Cl)c(N(C)C)c1n2CC(=O)O [Compound 33] | > 50% | < 50 µM | C (“C” = 2-7° C.) | 
CCc1cccc2c(=O)c3ccc(C)cc3n(CC(=O)O)c12 [Compound 38] |  |  | B (“B” = 0-2° C.) | > 300 µM
COc1c(Cl)ccc2c(=O)c3ccc(C4=CCNC4)cc3n(CC(=O)O)c12 [Compound 40] |  |  | C (“C” = 2-7° C.) | > 300 µM
COc1c(Cl)ccc2c(=O)c3ccc(C4=CCN(C(=O)OC(C)(C)C)C4)cc3n(CC(=O)O)c12 [Compound 41] |  |  | D (“D” >7° C.) | 20 to 100 µM
CN(C)c1c(Cl)ccc2c(=O)c3ccc(C(C)(C)C)cc3n(CC(=O)NS(=O)(=O)C3CC3)c12 [Compound 42] |  |  | D (“D” >7° C.) | < 20 µM
CN(C)c1c(Cl)ccc2c(=O)c3ccc(C(C)(C)C)cc3n(CC(=O)NC#N)c12 [Compound 43] |  |  | D (“D” >7° C.) | < 20 µM
Cc1ccc2c(=O)c3ccc(Cl)c(N(C)C)c3n(CC(=O)NS(=O)(=O)C3CC3)c2c1 [Compound 44] |  |  | D (“D” >7° C.) | 20 to 100 µM
Cc1ccc2c(=O)c3ccc(Cl)c(N(C)C)c3n(CC(=O)NC#N)c2c1 [Compound 45] |  |  | C (“C” = 2-7° C.) | 20 to 100 µM
CCc1c(Cl)ccc2c(=O)c3ccc(C)cc3n(CC(=O)O)c12 [Compound 48] |  |  | D (“D” >7° C.) | 20 to 100 µM
C=Cc1c(Cl)ccc2c(=O)c3ccc(C)cc3n(CC(=O)O)c12 [Compound 49] |  |  | D (“D” >7° C.) | 20 to 100 µM
CN(C)c1c(Cl)ccc2c(=O)c3ccc(-c4ccco4)cc3n(CC(=O)O)c12 [Compound 50] |  |  | D (“D” >7° C.) | 20 to 100 µM
COc1c(Cl)ccc2c(=O)c3ccc(Br)cc3n(CC(=O)O)c12 [Compound 66] |  |  | C (“C” = 2-7° C.) | 100 to 300 µM
CN(C)c1c(Cl)ccc2c(=O)c3ccc(C4(C)CC4)cc3n(CC(=O)O)c12 [Compound 85] | > 50% | < 50 µM |  | < 20 µM
CCc1cc2c(cc1Cl)c(=O)c1ccc(Cl)c(N(C)C)c1n2CC(=O)O [Compound 93] | > 50% | < 50 µM | C (“C” = 2-7° C.) | 
